Measurements from patent US20210395239A1 (Hoffmann-La Roche Inc., priority 2018, published 2021).

Target: T1, human TLR8 (Homo sapiens, UniProt Q9NR97)
T1 construct: host or cells: HEK293 (HEK-Blue hTLR8)
T1 sequence (Q9NR97 27-1041): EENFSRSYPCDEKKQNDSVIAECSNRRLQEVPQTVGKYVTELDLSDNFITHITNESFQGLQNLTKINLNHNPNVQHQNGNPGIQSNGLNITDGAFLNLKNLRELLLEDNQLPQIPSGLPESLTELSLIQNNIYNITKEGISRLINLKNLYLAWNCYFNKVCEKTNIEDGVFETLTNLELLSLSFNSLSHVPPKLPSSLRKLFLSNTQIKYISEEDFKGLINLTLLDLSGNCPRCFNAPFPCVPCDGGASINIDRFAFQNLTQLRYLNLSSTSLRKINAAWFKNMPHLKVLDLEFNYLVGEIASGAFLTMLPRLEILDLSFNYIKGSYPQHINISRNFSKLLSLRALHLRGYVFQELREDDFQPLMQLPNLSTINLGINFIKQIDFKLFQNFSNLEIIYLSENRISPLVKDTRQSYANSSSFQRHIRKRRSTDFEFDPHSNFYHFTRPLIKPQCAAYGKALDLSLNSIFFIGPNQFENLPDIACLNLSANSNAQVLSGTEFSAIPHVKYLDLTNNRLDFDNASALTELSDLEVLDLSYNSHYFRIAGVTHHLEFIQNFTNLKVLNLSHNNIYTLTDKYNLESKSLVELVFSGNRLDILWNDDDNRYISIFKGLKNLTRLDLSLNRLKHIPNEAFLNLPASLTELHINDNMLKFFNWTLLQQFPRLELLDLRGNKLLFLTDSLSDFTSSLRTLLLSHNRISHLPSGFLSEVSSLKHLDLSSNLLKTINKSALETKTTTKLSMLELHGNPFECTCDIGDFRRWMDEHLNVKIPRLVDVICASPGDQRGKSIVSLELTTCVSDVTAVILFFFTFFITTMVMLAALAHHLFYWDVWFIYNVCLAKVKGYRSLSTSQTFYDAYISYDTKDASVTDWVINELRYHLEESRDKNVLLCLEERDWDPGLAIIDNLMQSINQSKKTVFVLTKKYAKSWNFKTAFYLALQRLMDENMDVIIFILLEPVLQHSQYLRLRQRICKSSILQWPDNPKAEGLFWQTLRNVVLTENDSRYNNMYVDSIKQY
Experiment: HEK293-Blue-hTLR-8 cells assay (SEAP reporter, R848 stimulation)
Type: cell-based
Conditions: HEK293-Blue-hTLR8 cells, R848, 20 hrs; read-out: HEK/hTLR8 IC50
Procedure, shortened: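 HEK293-Blue-hTLR8 cells (NF-κB/AP-1-driven SEAP) incubated 20 h at 37° C with serially diluted compound (1% DMSO) plus R848 stimulation. Supernatant SEAP measured with QUANTI-Blue, 2 h at 37° C, absorbance 620–655 nm.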

| Compound | IC50 |
| --- | --- |
| Cc1cc(N2CC(C)(N)C2)cnc1N1CCN(C[C@H]2CN(c3ccc(C#N)n4ncc(F)c34)C[C@@H](C)O2)CC1 [Example 148, 4-[(2S,6R)-2-[[4-[5-(3-amino-3-methyl-azetidin-1-yl)-3-methyl-2-pyridyl]piperazin-1-yl]methyl]-6-methyl-morpholin-4-yl]-3-fluoro-pyrazolo[1,5-a]pyridine-7-carbonitrile] | 49 nM |
| [2H]c1ccc2c(N3C[C@H](CN4CCN(c5ccc(N6CC(C)(N)C6)c(C)n5)CC4)O[C@H](C)C3)ccc(C#N)c2n1 [Example 147, 5-[(2S,6R)-2-[[4-[5-(3-amino-3-methyl-azetidin-1-yl)-6-methyl-2-pyridyl]piperazin-1-yl]methyl]-6-methyl-morpholin-4-yl]-2-deuterio-quinoline-8-carbonitrile] | 11 nM |
| C[C@@H]1CN(c2ccc(C#N)n3ncc(F)c23)C[C@H](CN2CCN(c3ccc(N4CC(C)(N)C4)nc3)CC2)O1 [Example 154, 4-[(2S,6R)-2-[[4-[6-(3-amino-3-methyl-azetidin-1-yl)-3-pyridyl]piperazin-1-yl]methyl]-6-methyl-morpholin-4-yl]-3-fluoro-pyrazolo[1,5-a]pyridine-7-carbonitrile] | 50 nM |
| [2H]c1ccc2c(N3C[C@H](CN4CCN(c5ccc(N[C@H]6CNC[C@H]6F)nc5)CC4)O[C@H](C)C3)ccc(C#N)c2n1 [Example 162, 2-deuterio-5-[(2S,6R)-2-[[4-[6-[[(3S,4R)-4-fluoropyrrolidin-3-yl]amino]-3-pyridyl]piperazin-1-yl]methyl]-6-methyl-morpholin-4-yl]quinoline-8-carbonitrile] | 11 nM |
| C[C@@H]1CN(c2ccc(C#N)c3ncccc23)C[C@H](CN2CCN(c3cnc(N4CCNCC4)cn3)CC2)O1 [Example 6, 5-[(2R,6S)-2-methyl-6-[[4-(5-piperazin-1-ylpyrazin-2-yl)piperazin-1-yl]methyl]morpholin-4-yl]quinoline-8-carbonitrile] | 7 nM |
| Cc1cnc(N2CCN(C[C@H]3CN(c4ccc(C#N)c5ncccc45)C[C@@H](C)O3)CC2)nc1N1CCNCC1 [Example 102, 5-[(2R,6S)-2-methyl-6-[[4-(5-methyl-4-piperazin-1-yl-pyrimidin-2-yl)piperazin-1-yl]methyl]morpholin-4-yl]quinoline-8-carbonitrile] | 2 nM |
| [2H]c1ccc2c(N3C[C@H](CN4CCN(c5ccc(N6C[C@H]7C[C@@H]6CN7)nc5)CC4)O[C@H](C)C3)ccc(C#N)c2n1 [Example 153, 2-deuterio-5-[(2S,6R)-2-[[4-[6-[(1R,4R)-2,5-diazabicyclo[2.2.1]heptan-2-yl]-3-pyridyl]piperazin-1-yl]methyl]-6-methyl-morpholin-4-yl]quinoline-8-carbonitrile] | 19 nM |
| [2H]c1ccc2c(N3C[C@H](CN4CC(c5ccc(N6C[C@@H](N)[C@H](OC)C6)nc5)C4)O[C@H](C)C3)ccc(C#N)c2n1 [Example 149, 5-[(2S,6R)-2-[[3-[6-[(3R,4R)-3-amino-4-methoxy-pyrrolidin-1-yl]-3-pyridyl]azetidin-1-yl]methyl]-6-methyl-morpholin-4-yl]-2-deuterio-quinoline-8-carbonitrile] | 12 nM |
| [2H]c1ccc2c(N3C[C@H](CN4CC(c5cccc(N6CC(C)(N)C6)n5)C4)O[C@H](C)C3)ccc(C#N)c2n1 [Example 159, 5-[(2S,6R)-2-[[3-[6-(3-amino-3-methyl-azetidin-1-yl)-2-pyridyl]azetidin-1-yl]methyl]-6-methyl-morpholin-4-yl]-2-deuterio-quinoline-8-carbonitrile] | 52 nM |
| [2H]c1ccc2c(N3C[C@H](CN4CCN(c5ccc(N6C[C@@H]7C[C@H]6CN7)nc5)CC4)O[C@H](C)C3)ccc(C#N)c2n1 [Example 151, 2-deuterio-5-[(2S,6R)-2-[[4-[6-[(1S,4S)-2,5-diazabicyclo[2.2.1]heptan-2-yl]-3-pyridyl]piperazin-1-yl]methyl]-6-methyl-morpholin-4-yl]quinoline-8-carbonitrile] | 23 nM |

Now from value to compound:

| IC50 | Compound |
| --- | --- |
| 1 nM | C[C@@H]1CN(c2ccc(C#N)c3nccnc23)C[C@H](CN2CCN(c3nccc(N4C[C@@H](N)[C@H](F)C4)n3)CC2)O1 [Example 119, 8-[(2S,6R)-2-[[4-[4-[(3R,4R)-3-amino-4-fluoro-pyrrolidin-1-yl]pyrimidin-2-yl]piperazin-1-yl]methyl]-6-methyl-morpholin-4-yl]quinoxaline-5-carbonitrile] |
| 1 nM | Cc1cc(N2CCN(C[C@H]3CN(c4ccc(C#N)c5nccnc45)C[C@@H](C)O3)CC2)nc(N2CC(N)C2)n1 [Example 112, 8-[(2S,6R)-2-[[4-[2-(3-aminoazetidin-1-yl)-6-methyl-pyrimidin-4-yl]piperazin-1-yl]methyl]-6-methyl-morpholin-4-yl]quinoxaline-5-carbonitrile] |
| 4 nM | C[C@@H]1CN(c2ccc(C#N)c3ncccc23)C[C@H](CN2CCN(c3ccnc(N4C[C@@H](N)[C@@H](F)C4)n3)CC2)O1 [Example 101, 5-[(2S,6R)-2-[[4-[2-[(3R,4S)-3-amino-4-fluoro-pyrrolidin-1-yl]pyrimidin-4-yl]piperazin-1-yl]methyl]-6-methyl-morpholin-4-yl]quinoline-8-carbonitrile] |
| 4 nM | C[C@@H]1CN(c2ccc(C#N)c3ncccc23)C[C@H](CN2CCN(c3ccnc(N4C[C@@H](N)[C@H](F)C4)n3)CC2)O1 [Example 96, 5-[(2S,6R)-2-[[4-[2-[(3R,4R)-3-amino-4-fluoro-pyrrolidin-1-yl]pyrimidin-4-yl]piperazin-1-yl]methyl]-6-methyl-morpholin-4-yl]quinoline-8-carbonitrile] |
| 1 nM | CO[C@@H]1CN(c2cc(C)nc(N3CCN(C[C@H]4CN(c5ccc(C#N)c6nccnc56)C[C@@H](C)O4)CC3)n2)C[C@H]1N [Example 121, 8-[(2S,6R)-2-[[4-[4-[(3R,4R)-3-amino-4-methoxy-pyrrolidin-1-yl]-6-methyl-pyrimidin-2-yl]piperazin-1-yl]methyl]-6-methyl-morpholin-4-yl]quinoxaline-5-carbonitrile] |
| 1 nM | [2H]c1nc2c(C#N)ccc(N3C[C@H](CN4CCN(c5nc(C)cc(N6CC(N)C6)n5)CC4)O[C@H](C)C3)c2nc1[2H] [Example 124, 8-[(2S,6R)-2-[[4-[4-(3-aminoazetidin-1-yl)-6-methyl-pyrimidin-2-yl]piperazin-1-yl]methyl]-6-methyl-morpholin-4-yl]-2,3-dideuterio-quinoxaline-5-carbonitrile] |
| 7 nM | Cc1ccc(N2C[C@H](CN3CCN(c4ccnc(N5CCNCC5)n4)CC3)O[C@H](C)C2)c2nccnc12 [Example 117, (2R,6S)-2-methyl-4-(8-methylquinoxalin-5-yl)-6-[[4-(2-piperazin-1-ylpyrimidin-4-yl)piperazin-1-yl]methyl]morpholine] |
| 7 nM | [2H]c1ccc2c(N3C[C@H](CN4CCN(c5ccc(N6C[C@H](N)[C@@H](F)C6)nc5)CC4)O[C@H](C)C3)ccc(C#N)c2n1 [Example 150, 5-[(2S,6R)-2-[[4-[6-[(3S,4S)-3-amino-4-fluoro-pyrrolidin-1-yl]-3-pyridyl]piperazin-1-yl]methyl]-6-methyl-morpholin-4-yl]-2-deuterio-quinoline-8-carbonitrile] |
| 8 nM | [2H]c1ccc2c(N3C[C@H](CN4CCN(c5ccc(N6C[C@@H](N)[C@H](OC)C6)nc5)CC4)O[C@H](C)C3)ccc(C#N)c2n1 [Example 143, 5-[(2S,6R)-2-[[4-[6-[(3R,4R)-3-amino-4-methoxy-pyrrolidin-1-yl]-3-pyridyl]piperazin-1-yl]methyl]-6-methyl-morpholin-4-yl]-2-deuterio-quinoline-8-carbonitrile] |
| 1 nM | Cc1cc(N2CC(N)C2)nc(N2CCN(C[C@H]3CN(c4ccc(C#N)c5nccnc45)C[C@@H](C)O3)CC2)n1 [Example 123, 8-[(2S,6R)-2-[[4-[4-(3-aminoazetidin-1-yl)-6-methyl-pyrimidin-2-yl]piperazin-1-yl]methyl]-6-methyl-morpholin-4-yl]quinoxaline-5-carbonitrile] |
| 12 nM | Cc1ccc(N2C[C@H](CN3CCN(c4ccnc(N5CCN[C@H](C)C5)n4)CC3)O[C@H](C)C2)c2nccnc12 [Example 128, (2R,6S)-2-methyl-6-[[4-[2-[(3R)-3-methylpiperazin-1-yl]pyrimidin-4-yl]piperazin-1-yl]methyl]-4-(8-methylquinoxalin-5-yl)morpholine] |
